Where “and” joins values, the source holds several entries; their conditions need not be identical. Equal values may be shown once.
Key:
[1] = Pharmacokinetic study, single subcutaneous dose, plasma by LC-MS/MS; type: in vivo, mouse; conditions: for plasma concentration, individual mice: 1.2 mg/kg s.c.
Experimental: The pharmacokinetic profile of TYRA-300 in adult rats has been previously described ([31]). Because the FGFR3-driven skeletal dysplasia models are performed using neonatal mice, an experiment was designed to understand the pharmacokinetics of TYRA-300 at a relevant efficacious dose in male and female mice, ranging from 1 to 12 weeks of age. In this experiment, TYRA-300 plasma levels were measured following administration of a single 1.2 mg/kg subcutaneous dose. […] There was a similar AUCinf in 2-week-old mice (2,295 h × ng/mL). […] Cytochrome P450 enzymes are commonly responsible for the metabolism of TKIs. In mice, cytochrome P450s are not fully developed until the mice are at least 3 weeks of age ([33]), which may explain the higher level of TYRA-300 exposure in the younger mice.
C57BL/6J (The Jackson Laboratory) mice were randomized to treatment groups according to body weight. Owing to the young age of some groups, a mixture of female and male mice was used. Depending on the age of mice, 3–8 mice per group were dosed with a single subcutaneous dose of TYRA-300 (1.2 mg/kg) and then blood was collected either serially at 3 different time points (if 4 weeks of age and older) or terminally at a single time point (if 1–3 weeks of age). Mouse plasma was harvested using lithium heparin tubes at 0.5, 1, 4, 6, 8, 12, and 24 hours after dosing. Compound concentration from plasma was detected using liquid chromatography with tandem mass spectrometry at Oakland Analytics.

pERK1/2 = experiment: Fgfr3N534K/+ mice: histology and pERK1/2 immunohistochemistry of distal femur; type: in vivo, mouse; conditions: 1.8 mg/kg daily for 21 days
Experimental: To confirm the mechanistic effect of TYRA-300 within the growth plate of treated Fgfr3^N534K/+ mice, immunohistochemical analyses were performed on the distal femurs. In contrast to the ACH model, a larger SOC is visible in the femoral epiphysis of HCH mice ([42]), and the effect of TYRA-300 on SOC formation is not obvious. […] It is well established that the MAPK pathway is the canonical FGFR3 downstream signaling pathway. Here, we confirmed that this pathway is still activated at 24 days of age in the HCH growth plate through immunohistochemical staining of phosphorylated ERK1/2 (pERK), which was positive in hypertrophic chondrocytes (Figure 4G).
The right femur and lumbar vertebrae segment L4–L6 were collected and fixed in 4% paraformaldehyde, decalcified with ethylenediaminetetraacetic acid (EDTA) 0.5 M (pH 8) for 2 or 3 weeks, and embedded in paraffin. Serial paraffin sections of 5 μm were stained with hematoxylin, eosin, and Safranin O. For immunohistochemistry, sections were labeled with antibodies against collagen type X (BIOCYC ref. [1]-CO097-05-RUO, 1:100 dilution), collagen type I (Novotec, 20151, dilution 1:1,000), pERK (Cell Signaling, 4370S, dilution 1:1,000), and PCNA (Abcam, GR3195972-6, 1:500 dilution) using the Dako Envision Kit. […] Cells were counted using ImageJ software (NIH, Laboratory for Optical Computational Instrumentation).

[2] = 1.2 mg/kg single s.c., 1-week-old mice

## C[C@@H](Oc1ccc2[nH]nc(-c3ccc(N4CC5(C4)CN(S(C)(=O)=O)C5)nc3)c2c1)c1c(Cl)cncc1Cl [TYRA-300]
[1]; 1 week old, 12 h, LLOQ 4 ng/mL
  plasma concentration, individual mice: 37.7 ng/mL and 35.7 ng/mL and 49.1 ng/mL
[1]; 1 week old, 24 h, LLOQ 4 ng/mL
  plasma concentration, individual mice: 4 ng/mL (2×) and 5.11 ng/mL
[1]; 1 week old, time 0 h, LLOQ 4 ng/mL
  plasma concentration, individual mice: 4 ng/mL
[1]; 2 weeks old, 0.5 h, LLOQ 8 ng/mL
  plasma concentration, individual mice: 276 ng/mL and 247 ng/mL and 312 ng/mL
[1]; 2 weeks old, 1 h, LLOQ 8 ng/mL
  plasma concentration, individual mice: 442 ng/mL and 320 ng/mL and 190 ng/mL
[1]; 2 weeks old, 4 h, LLOQ 8 ng/mL
  plasma concentration, individual mice: 196 ng/mL and 308 ng/mL and 157 ng/mL
[1]; 2 weeks old, 6 h, LLOQ 8 ng/mL
  plasma concentration, individual mice: 148 ng/mL and 144 ng/mL and 232 ng/mL
[1]; 2 weeks old, 8 h, LLOQ 8 ng/mL
  plasma concentration, individual mice: 50.3 ng/mL and 95.4 ng/mL and 202 ng/mL
[1]; 2 weeks old, 12 h, LLOQ 8 ng/mL
  plasma concentration, individual mice: 42.2 ng/mL and 29.1 ng/mL and 34.4 ng/mL
[1]; 2 weeks old, 24 h, LLOQ 8 ng/mL
  plasma concentration, individual mice: 8 ng/mL and 10.2 ng/mL and 8.27 ng/mL
[1]; 2 weeks old, time 0 h, LLOQ 8 ng/mL
  plasma concentration, individual mice: 8 ng/mL
[1]; 3 weeks old, 0.5 h, LLOQ 8 ng/mL
  plasma concentration, individual mice: 250 ng/mL and 248 ng/mL and 229 ng/mL and 221 ng/mL
[1]; 3 weeks old, 1 h, LLOQ 8 ng/mL
  plasma concentration, individual mice: 293 ng/mL and 238 ng/mL and 250 ng/mL and 251 ng/mL
[1]; 3 weeks old, 4 h, LLOQ 8 ng/mL
  plasma concentration, individual mice: 10.2 ng/mL and 12.5 ng/mL and 17.9 ng/mL and 9.9 ng/mL
[1]; 3 weeks old, 6 h, LLOQ 8 ng/mL
  plasma concentration, individual mice: 8 ng/mL (3×) and 15 ng/mL
[1]; 3 weeks old, 8 h, LLOQ 8 ng/mL
  plasma concentration, individual mice: 8 ng/mL
[1]; 3 weeks old, 12 h, LLOQ 8 ng/mL
  plasma concentration, individual mice: 8 ng/mL (3×) and 9.31 ng/mL
[1]; 3 weeks old, 24 h, LLOQ 8 ng/mL
  plasma concentration, individual mice: 8 ng/mL
[1]; 3 weeks old, time 0 h, LLOQ 8 ng/mL
  plasma concentration, individual mice: 8 ng/mL
[1]; 4 weeks old, 0.5 h, LLOQ 8 ng/mL
  plasma concentration, individual mice: 102 ng/mL and 115 ng/mL and 172 ng/mL and 145 ng/mL and 197 ng/mL
[1]; 4 weeks old, 1 h, LLOQ 8 ng/mL
  plasma concentration, individual mice: 169 ng/mL and 242 ng/mL and 178 ng/mL and 48 ng/mL
[1]; 4 weeks old, 4 h, LLOQ 8 ng/mL
  plasma concentration, individual mice: 39 ng/mL and 12 ng/mL (2×) and 10 ng/mL
[1]; 4 weeks old, 6 h, LLOQ 8 ng/mL
  plasma concentration, individual mice: 8 ng/mL (3×) and 16 ng/mL
[1]; 4 weeks old, 8 h, LLOQ 8 ng/mL
  plasma concentration, individual mice: 8 ng/mL
[1]; 4 weeks old, 12 h, LLOQ 8 ng/mL
  plasma concentration, individual mice: 8 ng/mL
[1]; 4 weeks old, 24 h, LLOQ 8 ng/mL
  plasma concentration, individual mice: 8 ng/mL
[1]; 4 weeks old, time 0 h, LLOQ 8 ng/mL
  plasma concentration, individual mice: 8 ng/mL
[1]; 6 weeks old, 0.5 h, LLOQ 8 ng/mL
  plasma concentration, individual mice: 150 ng/mL and 198 ng/mL and 171 ng/mL and 172 ng/mL
[1]; 6 weeks old, time 0 h, LLOQ 8 ng/mL
  plasma concentration, individual mice: 8 ng/mL
[1]; 1.2 mg/kg single s.c.
  AUCinf of 3- through 12-week-old mice, times lower than average of 1- and 2-week-old mice: about 3.8 times
[1]; [2]
  maximum observed concentration: 287 ng/mL
  mean AUCinf: 1,789 h*ng/mL
[1]; 1.2 mg/kg single s.c., 2-week-old mice
  mean AUCinf: 2,295 h*ng/mL
[1]; 1.2 mg/kg single s.c., 3- through 12-week-old mice
  average AUCinf: 538 ng·h/mL
pERK1/2
  overall architecture of the growth plate (H&E and collagen type X): did not demonstrate significant changes
pERK1/2; distal femur growth plate
  pERK+ cells per ROI vs vehicle: significant decrease

From publication PMC12128972, “TYRA-300, an FGFR3-selective inhibitor, promotes bone growth in two FGFR3-driven models of chondrodysplasia” (JCI Insight, 2025)
